Read-outs that look alike come from different tables or passages of the source. Bounds are passed on as bounds.

We go through four compounds from publication PMC9658513, “Discovery of Compounds That Selectively Repress the Amyloidogenic Processing of the Amyloid Precursor Protein: Design, Synthesis and Pharmacological Evaluation of Diphenylpyrazoles” (International Journal of Molecular Sciences, 2022).

Series [1] relates to SY5Y-APP^695WT cells. As to conditions: 50% cell death after 72 h treatment; read-out: Cytotox. CC50; cited from earlier work.
Series [2] relates to Aβ1–40 peptide secretion. As to conditions: SY5Y cells; cited from earlier work.
The nature of the next series: in vitro. In kind it is cell-based, human. As to conditions: human. Here is the method:
(§1) Cytotoxicity was measured using 3-(4,5-dimethylthiazol-2-yl)-5-(3-carboxymethoxyphenyl)-2-(4-sulfophenyl)-2H-tetrazolium (MTS) tests. SY5Y-APP^695WT cells were plated in a 96-well plate at 3 × 10^4 cells per well and allowed to attach for 24 h. Cells were then incubated for 72 h with 100 µL of DMEM with 10% SVF containing (or not) the defined concentration of drugs. Cytotoxicity was determined by using the colorimetric MTS assay (Cell Titer 96® Aqueous One Solution Cell Proliferation Assay-MTS Promega, Madison, WI, USA) according to the manufacturer’s instructions. Absorbance was read at 490 nm.

A further series concerns sAPPα. Kind of series: sAPPα secretion (MSD sAPPα/sAPPβ Multiplex Kit). In kind it is cell-based, human. As to conditions: concentration increasing sAPPα 1.5-fold vs untreated control. Here is the method: (§2) A selection of compounds with several selected activities was performed including sAPPα and sAPPβ, which were further explored. […] The decrease in Aβ could result from a decrease in either β- or γ-secretase cleavage or an increase in the α-secretase cleavage of APP. Thus, medium concentrations of sAPPβ and sAPPα, which are the β- and α-secretase extramembrane shed APP fragments, were determined after cell drug treatments.
The human neuroblastoma cell line SY5Y-APP^695WT was maintained in Dulbecco’s modified Eagle medium (DMEM, high glucose, pyruvate—GIBCO, Life Technologies, Carlsbad, CA, USA) supplemented with 10% fetal bovine serum, 2 mM L-glutamine, 1 mM non-essential amino acids and penicillin/streptomycin (GIBCO, Life Technologies, Carlsbad, CA, USA) at 37 °C in a 5% CO2 humidified incubator [36]. For compound treatment, a 10 mM stock solution was diluted in freshly supplemented DMEM medium to obtain the precise final concentration of the drug. Cells were plated at a density of 5 × 10^5 cells per well into 12-well plates and cultured with 1 mL supplemented DMEM cell medium for 24 h before compound exposure. The following day, the cell medium was replaced with fresh medium containing the compounds diluted at the indicated concentrations. Cells were treated for 24 h. At the end of the treatments, the cell medium was collected and kept at −80 °C until use, cells were rinsed once with PBS and extracted in 100 µL of Laemmli buffer (10 mM Tris, 20% glycerol, and 2% sodium dodecyl sulfate) using a cell-scraper. […] Total protein concentration was determined using the Pierce BCA Protein Assay Kit (Thermo Scientific, Waltham, MA, USA) according to the manufacturer’s instructions. […]
(§3) Aβ1–40/Aβ1–42 peptides, Aβx–38/Aβx–40/Aβx–42, and sAPPα/sAPPβ concentrations in pg/mL were determined, respectively, using amyloid-beta 40 and 42 Human ELISA Kits (Invitrogen), the V-PLEX Plus Aβ Peptide Panel 1 (4G8) Kit (Meso Scale Diagnostics, MSD R©, Rockville, MD, USA), and the sAPPα/sAPPβ Multiplex Kit (Meso Scale Diagnostics, MSD R©, Rockville, MD, USA) according to the manufacturer’s instructions.

Another series relates to Aβ1–42 peptide secretion. The series is described as follows: Aβ1–42 secretion in cell medium by ELISA. In kind it is cell-based, human. As to conditions: SY5Y-APP^WT cells, 24 h treatment, mean ± SD of at least three experiments in triplicate. As for the experimental part:
(§4) The final and selected intermediate compounds were evaluated for their ability to modulate APP processing in the SH-SY5Y human neuroblastoma cell line stably expressing the neuronal isoform of human wild-type APP^695 (SY5Y-APP^WT), a well-established model for the study of APP metabolism. APP carboxy-terminal fragments (αCTFs and AICD) levels were assessed by Western blotting (WB). The effect of the reference and test compounds on αCTFs and AICD is expressed as the intensity of corresponding WB bands. The concentration of compounds able to increase 20-times αCTFs and AICD (C20) when compared to the control condition was calculated. Selected compounds were also evaluated for their ability to modulate the secretion of soluble APP fragments (sAPPα and sAPPβ). Aβ1–x levels (Aβ1–40 and Aβ1–42) after treatment with the reference and tested compounds were measured in the cell media by ELISA (Table 1). […] Selected hit compounds were then further evaluated for their ability to decrease the level of N-truncated Aβ peptides (Aβx–38, Aβx–40, and Aβx–42).
(§5) The human neuroblastoma cell line SY5Y-APP^695WT was maintained in Dulbecco’s modified Eagle medium (DMEM, high glucose, pyruvate—GIBCO, Life Technologies, Carlsbad, CA, USA) supplemented with 10% fetal bovine serum, 2 mM L-glutamine, 1 mM non-essential amino acids and penicillin/streptomycin (GIBCO, Life Technologies, Carlsbad, CA, USA) at 37 °C in a 5% CO2 humidified incubator [36]. For compound treatment, a 10 mM stock solution was diluted in freshly supplemented DMEM medium to obtain the precise final concentration of the drug. Cells were plated at a density of 5 × 10^5 cells per well into 12-well plates and cultured with 1 mL supplemented DMEM cell medium for 24 h before compound exposure. The following day, the cell medium was replaced with fresh medium containing the compounds diluted at the indicated concentrations. Cells were treated for 24 h. At the end of the treatments, the cell medium was collected and kept at −80 °C until use, cells were rinsed once with PBS and extracted in 100 µL of Laemmli buffer (10 mM Tris, 20% glycerol, and 2% sodium dodecyl sulfate) using a cell-scraper. The cell lysate was further sonicated (30 pulses of 0.5 s, 60 Hz) for 5 min. Total protein concentration was determined using the Pierce BCA Protein Assay Kit (Thermo Scientific, Waltham, MA, USA) according to the manufacturer’s instructions. Samples were stored at −80 °C until analysis.
(§6) Conditioned media of SY5Y-APP^695WT collected at the end of treatments were centrifuged at 1000× g for 5 min to eliminate cell debris.
as §3
On the technique in general: An ELISA detects its analyte on a solid surface through an enzyme-linked reagent.

Series [3] deals with AICD (APP intracellular domain). Kind of series: AICD level by Western blotting in SY5Y-APP^WT cells. In kind it is cell-based, human. The following applies: concentration increasing AICD 20-fold vs untreated control, read-out: AICD (C20). Here is the method: as §4, §5
(§7) Cell protein lysates were prepared for Western blot analysis by diluting the sample with 1 volume of NuPAGE® lithium dodecyl sulfate (LDS) 2X sample buffer supplemented with 20% NuPAGE® sample reducing agents (Invitrogen). Samples were heated for 10 min at 100 °C. Ten µg of total proteins per well were loaded onto precast 4–12% Criterion XT Bis-Tris polyacrylamide gels (Bio-Rad) and electrophoresis was achieved after applying a tension of 150 V for 90 min using a Criterion electrophoresis cell with the NuPAGE® MOPS SDS running buffer (1X). Proteins were transferred to a nitrocellulose membrane of […] pore size (G&E Healthcare, Madison, WI, USA) using the Criterion blotting system and applying a tension of 100 V for 45 min. To resolve proteins of low molecular weights such as carboxy-terminal fragments of APP, 12% Criterion XT Bis-Tris polyacrylamide gels (Bio-Rad, Hercules, CA, USA) were used, and electrophoresis was performed for 70 min at 150 V in a NuPAGE® MES SDS running buffer (1X). Proteins were transferred to a nitrocellulose membrane of 0.2 µm pore size (G&E Healthcare, Madison, WI, USA) at 100 V for 40 min. Molecular weight calibration was achieved using molecular weight markers (Novex and Magic Marks, Life Technologies, Carlsbad, CA, USA). Protein transfer and quality were determined by a reversible Ponceau Red coloration (0.2% xylidine Ponceau Red and 3% trichloroacetic acid). […]
For orientation: In western blotting, separated proteins are transferred to a membrane and probed.

The subject of another series is sAPPβ secretion. Kind of series: sAPPβ secretion (MSD sAPPα/sAPPβ Multiplex Kit). In kind it is cell-based, human. As to conditions: SY5Y cells, mean ± SD of at least three experiments in triplicate. Here is the method:
as §2, §5, §6, §3

Series [4] has as its system αCTF (APP carboxy-terminal fragment). The series is described as follows: αCTF level by Western blotting in SY5Y-APP^WT cells. In kind it is cell-based, human. The following applies: for EC (20-fold increase): concentration increasing αCTF 20-fold vs untreated control, SY5Y-APP^WT cells, read-out: αCTF (C20). As for the experimental part:
as §4, §5, §7

Series [5] deals with Aβ1–40 peptide secretion. Kind of series: Aβ1–40 secretion in cell medium by ELISA. In kind it is cell-based, human. Here is the method: as §4, §5, §6, §3
In series [6] the test system is SY5Y-APP^695WT cells. The series is described as follows: in vitro. In kind it is cell-based, human. As for the experimental part: as §1
The next series has as its system p62/LC3. The series is described as follows: Ratio between p62 and LC3 expression levels. In kind it is cell-based, human. The following applies: compound at 3 µM, 24 h, SY5Y-APP^wt cells. An excerpt:
Compounds from both series were selected to first determine the potential relationship between the repression of Aβ1–x production and the increased expression of LC3 and p62. […] We then also considered the ratio between the p62 and LC3 expression levels.
Figure 3 Effect of compounds 24, 33, 34, 57, 65, 67, 70, and 71 on the autophagic flux in SY5Y-APP^wt cells. […] Cell lysates were immunolabeled with the following antibodies: p62 (a), LC3 (b), and β-actin. Statistical significance was set at * p < 0.05, ** p < […], *[…], **** p < 0.0001, and ns as not significant.

Where [7] appears, read: SY5Y-APP^WT cells, 24 h treatment, mean ± SD of at least three experiments in triplicate, read-out: Aβ1–40 IC50.

By CC50 is commonly meant the concentration at which the toxic effect on the cells reaches its halfway point. As usually defined, the IC50 is the point on the concentration scale where inhibition reaches its midpoint. As for `CCN(CC)CCCC(C)Nc1ccnc2cc(Cl)ccc12` (centres unmarked) [CQ, chloroquine, reference compound], the CC50 in the series on SY5Y-APP^695WT cells [1] was 30 µM. Also, the IC50 in the series on Aβ1–40 peptide secretion [2] was 7 µM.

Turning to `Cc1cn(-c2cccc(CN(C)CCCN(C)C)c2)nc1-c1ccc(CN(C)CCCN(C)C)cc1` [Compound 69, [3-(Dimethylamino)propyl][(4-{1-[3-({[3-(dimethylamino)propyl](methyl)amino}methyl)phenyl]-4-methyl-1H-pyrazol-3-yl}phenyl)methyl]methylamine], the CC50 at 72 h in the series “in vitro” is 2 µM. Also, the “sAPPα C1.5” value in the series on sAPPα is reported as >5 µM. Further, the IC50 with Aβ1–42 peptide secretion (Homo sapiens) was 1.6 ± 0.1 µM; in the series with sAPPβ secretion (Homo sapiens), 2.8 ± 1.1 µM; with Aβ1–40 peptide secretion [5] (Homo sapiens, Aβ1–40 and Aβ1–42 not distinguished, read-out: IC50 for Aβ secretion (Aβ1–x production)), ~1 µM; in the series on Aβ1–40 peptide secretion [5] (Homo sapiens, SY5Y-APP^WT cells, 24 h treatment, mean ± SD of at least three experiments in triplicate, read-out: Aβ1–40 IC50) it was 1.4 ± 0.1 µM. For the same compound, the figures for the EC (20-fold increase) in series [3] (Homo sapiens) and in series [4] (Homo sapiens) were 1 µM and 0.6 µM, respectively. Also, in series [4] (CTFα and AICD together), the “C20 for CTFα and AICD” value is listed as “around 1 µM”.

Turning to “N′-[[3-[4-(Dimethylaminomethyl)-3-[4-[3-(dimethylamino)propyl]phenyl] Pyrazol-1-yl]phenyl]methyl]-N,N,N′-trimethyl-propane-1,3-diamine [Compound 34]”, in the series with SY5Y-APP^695WT cells [6], the CC50 is > 100 µM. For the same compound, in the series with SY5Y-APP^695WT cells [6], the “Cytotox. CC50” value is given as 100 µM. In addition, in the series with sAPPα, the “sAPPα C1.5” value was >10 µM. Also, the IC50 with Aβ1–42 peptide secretion amounted to 8.3 ± 0.2 µM; in the series with sAPPβ secretion, 4.5 ± 0.7 µM; in the series on Aβ1–40 peptide secretion [5] (setting [7]), 5.7 ± 0.5 µM. Besides, the EC (20-fold increase) came to 1.9 µM in [3] and 1.1 µM in series [4]. Also, in the series with p62/LC3, the p62/LC3 is recorded as 0.91.

On to “N′-[[3-[4-[3-(Dimethylamino)propyl]-3-[4-[3-(dimethylamino)propyl]phenyl] Pyrazol-1-yl]phenyl]methyl]-N,N,N′-trimethyl-propane-1,3-diamine [Compound 35]”, for which the CC50 in the series with SY5Y-APP^695WT cells [6] was > 100 µM. For the same compound, the concentration for half-maximal inhibition (IC50) came out at 13.2 ± 0.2 µM in the series with Aβ1–42 peptide secretion and 12.4 ± 0.6 µM in the series on Aβ1–40 peptide secretion [5] (setting [7]). For the same compound, the EC (20-fold increase) is given as 5.4 µM in series [3] and 5.1 µM in series [4]. The p62/LC3 with p62/LC3 is listed as ~1.
